Assay results as given in patent publication US6919425B2, “Isolation of a cell-specific internalizing peptide that infiltrates tumor tissue for targeted drug delivery” (Board of Regents, The University of Texas System, priority 2000, dated 2005).
“Also recorded” adds a separate entry of the source. Starred links: 1 amine or outer side, 2 acyl side, 3 side chain; linkers in the order of their positions; H or OH if unused. Positions of bridges follow the written chain, without caps; N, C: chain ends. Non-standard residues stand in square brackets, D forms with d. Residues, ends and D or L forms follow the SMILES beside them. Chains are numbered I, II in the order given. Actinocin(9to1) = Cc1c2oc3c(C)ccc(C(=O)[*:1])c3nc-2c(C(=O)[*:2])c(N)c1=O; NMeV = CN[C@H](C(=O)O)C(C)C; Sar = CNCC(=O)O

Key:
[1] = cited from earlier work
[2] = Toxicity, immunogenicity and stability in HN-1 injected mice; format: in vivo
[3] = test system: MDA177Tu cells
[4] = mouse, in vivo; cited from earlier work

Cc1c2oc3c(C)ccc(C(=O)N[C@@H]4C(=O)N[C@H](C(C)C)C(=O)N5CCC[C@H]5C(=O)N(C)CC(=O)N(C)[C@@H](C(C)C)C(=O)O[C@@H]4C)c3nc-2c(C(=O)N[C@@H]2C(=O)N[C@H](C(C)C)C(=O)N3CCC[C@H]3C(=O)N(C)CC(=O)N(C)[C@@H](C(C)C)C(=O)O[C@@H]2C)c(N)c1=O [Actinomycin D] (I: T[dV]P[Sar][NMeV] / II: T[dV]P[Sar][NMeV]; ester I:1-I:C, II:1-II:C; linker I:N-II:N via Actinocin(9to1))
dose excreted / detected intact in the urine ([1]; in vivo): 10%

CC[C@H](C)[C@H](NC(=O)[C@H](CC(N)=O)NC(=O)[C@H](CC(C)C)NC(=O)[C@@H]1CCCN1C(=O)[C@H](CO)NC(=O)[C@@H](N)[C@@H](C)O)C(=O)N[C@@H](Cc1c[nH]cn1)C(=O)N[C@@H](CC(N)=O)C(=O)NCC(=O)N[C@@H](CCC(N)=O)C(=O)N[C@@H](CCCCN)C(=O)N[C@@H](CC(C)C)C(N)=O [HN-1] (H-TSPLNIHNGQKL-NH2; N-terminus and C-terminus assumed)
toxicity ([2]; histology of organs of injected mice): no histological evidence of organotoxicity; also recorded: nontoxic | immunogenicity ([2]; mouse, in vivo): nonimmunogenic | protection of cargo during transit ([2]; mouse, in vivo): protects its “cargo” during transit; also recorded: protects its cargo during transit | stability in vivo ([2]; shown by detecting intact peptide in blood 24 h after injection): stable in vivo

O=NN(CCCl)C(=O)NC1CCCCC1 [Lomustine, 1-(2-chloro-ethyl)-3-cyclohexyl-1nitrosourea]
tissue levels relative to plasma levels ([1]; in vivo, iv): comparable

CC[C@]1(O)C[C@@H]2CN(CCc3c([nH]c4ccccc34)[C@@](C(=O)OC)(c3cc4c(cc3OC)N(C)[C@H]3[C@@](O)(C(=O)OC)[C@H](OC(C)=O)[C@]5(CC)C=CCN6CC[C@]43[C@@H]65)C2)C1 [Vinblastine]
dose excreted / detected intact in the urine ([1]; in vivo): Approximately 15% | half-life of disappearance from plasma after distribution (first of two) ([1]; intravenous injection): approximately 1 hours | half-life of disappearance from plasma after distribution (second of two) ([1]; intravenous injection): ~20 h

CC[C@]1(O)C[C@H]2CN(CCc3c([nH]c4ccccc34)[C@@](C(=O)OC)(c3cc4c(cc3OC)N(C=O)[C@H]3[C@@](O)(C(=O)OC)[C@H](OC(C)=O)[C@]5(CC)C=CCN6CC[C@]43[C@@H]65)C2)C1 [Vincristine]
terminal half-life of clearance from the plasma ([1]; multiphasic): about 24 hours

O=C1OC2(c3ccc(O)cc3Oc3cc(O)ccc32)c2ccccc21 [fluorescein]
permeability of the dyes themselves [3]: impermeable

Bleomycin
concentrations in hematopoietic tissue / bone marrow [4]: low concentrations | concentrations in skin, lungs, kidneys, peritoneum and lymphatics [4]: high concentrations
